Consider two compounds from ChEMBL document CHEMBL4251725, “Azabicyclic Fused Pyrimidine Derivatives Useful for the Treatment of Alzheimer's Disease” (ACS Med Chem Lett, 2018).

The assay addresses Gamma-secretase. Description: Inhibition of gamma-secretase in human H4 cells harboring APP695 K595N/M596L swedish mutant after 24 hrs by AlphaLisa assay. It counts as cell-based. (In general: Bead proximity is the source of the signal in Alpha formats.)

As usually defined, the EC50 is the midpoint of the concentration-response curve. Compound `CNc1nc(Nc2ccc(-n3cnc(C)n3)c(F)c2)nc2c1C(C)(C)CCN2c1ccc(F)cc1` had an EC50 of 8 nM. Under `CNc1nc(Nc2ccc(-n3cnc(C)c3)c(OC)c2)nc2c1C(C)(C)CN2C1CC(F)(F)C1` stands 14 nM.
